Assay results from patent publication US10227360B2, “Compounds for use as GPR120 agonists” (PIRAMAL ENTERPRISES LIMITED, priority 2014, dated 2019).

Target: GPR120L receptor (Homo sapiens (Human), UniProt Q5NUL3)
Assay: Beta (β) arrestin 2 Interaction Assay (BRET assay), β-galactosidase enzyme fragment complementation
Format: cell-based
Conditions: CHO-K1 cells stably expressing the GPR120L receptor; β-arrestin recruitment; 2 hours incubation
Experimental: Beta (β) arrestin 2 Interaction Assay (BRET assay) was performed using CHO-K1 cells stably expressing the GPR120L receptor using β-galactosidase (Beta gal) enzyme fragment complementation assay. The measurement of GPR120 activation upon agonist activation was directly provided by β-arrestin recruitment. One day before the β-arrestin 2 assay, CHO-K1 cells were seeded and incubated overnight at 37° C. in a 5% CO2 humidified atmosphere. Cells were treated with the test compounds in the various concentrations ranging from 30 μM to 1 nM and incubated for 2 hours for GPCR (GPR120) activation. Extent of Arrestin recruitment was measured by adding detection reagents for Beta gal complementation assay and was further incubated for 1 hour. The chemi-luminescent signal was detected on Polar Star (BMG Labtech). The dose-response curve was analyzed using Sigma Plot/Graph Pad. The EC50 (concentration of the test compounds where 50% of compounds' maximal activity is observed) values were calculated from the dose-response curve.

Sequence of GPR120L receptor (Q5NUL3 other isoform, or with tags, fused parts or gaps): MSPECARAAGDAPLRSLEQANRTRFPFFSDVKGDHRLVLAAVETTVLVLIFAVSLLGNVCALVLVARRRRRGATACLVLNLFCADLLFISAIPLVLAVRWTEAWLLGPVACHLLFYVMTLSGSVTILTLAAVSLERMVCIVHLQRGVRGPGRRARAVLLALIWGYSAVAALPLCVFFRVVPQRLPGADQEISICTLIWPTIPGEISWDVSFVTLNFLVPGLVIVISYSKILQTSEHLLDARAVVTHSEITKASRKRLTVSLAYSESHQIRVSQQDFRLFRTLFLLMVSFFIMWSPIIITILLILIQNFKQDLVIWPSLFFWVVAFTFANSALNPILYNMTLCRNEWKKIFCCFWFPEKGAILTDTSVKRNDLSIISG

EC50 | SMILES
10 to 500 nM | N#CC1(c2ccc(-c3ccc(F)cc3COc3ccc(CCC(=O)O)cc3)cc2)CC1 [Example 5, 3-(4-((4′-(1-Cyanocyclopropyl)-4-fluoro-[1,1′-biphenyl]-2-yl)methoxy)phenyl)propanoic acid]
500 to 5000 nM | O=C(O)CCCc1ccc(OCc2cc(F)ccc2-c2ccc(C3CCCCC3)cc2)cc1 [Example 16, 4-(4-((4′-Cyclohexyl-4-fluoro-[1,1′-biphenyl]-2-yl)methoxy)phenyl)butanoic acid]
10 to 500 nM | O=C(O)CCCc1ccc(OCc2cc(F)ccc2-c2ccc3c(c2)CC3)cc1 [Example 10, 4-(4-((2-(Bicyclo[4.2.0]octa-1(6),2,4-trien-3-yl)-5-fluorobenzyl)oxy)phenyl)butanoic acid]
10 to 500 nM | CC1(c2ccc(-c3ccc(F)cc3COc3ccc(CCCC(=O)O)cc3)s2)CC1 [Example 40, 4-(4-((5-Fluoro-2-(5-(1-methylcyclopropyl)thiophen-2-yl)benzyl)oxy)phenyl)butanoic acid]
10 to 500 nM | O=C(O)CCCc1ccc(OCc2cc(F)ccc2-c2ccc3c(c2)CCC3)cc1 [Example 8, 4-(4-((2-(2,3-Dihydro-1H-inden-5-yl)-5-fluorobenzyl)oxy)phenyl)butanoic acid]
500 to 5000 nM | N#CC1(c2ccc(-c3ccc(F)cc3COc3ccc(CCC(=O)O)cc3)s2)CC1 [Example 2, 3-(4-((2-(5-(1-Cyanocyclopropyl)thiophen-2-yl)-5-fluorobenzyl)oxy)phenyl)propanoic acid]
500 to 5000 nM | N#CC1(c2ccc(-c3ccc(F)cc3COc3ccc(CCC(=O)O)cc3)cn2)CC1 [Example 6, 3-(4-((2-(6-(1-Cyanocyclopropyl)pyridin-3-yl)-5-fluorobenzyl)oxy)phenyl)propanoic acid]
10 to 500 nM | O=C(O)CCCc1ccc(OCc2ccccc2-c2ccc3c(c2)CCC3)cc1 [Example 33, 4-(4-((2-(2,3-Dihydro-1H-inden-5-yl)benzyl)oxy)phenyl)butanoic acid]
500 to 5000 nM | O=C(O)CCCc1ccc(OCc2cc(F)ccc2-c2nc(C3CC3)cs2)cc1 [Example 50, 4-(4-((2-(4-Cyclopropylthiazol-2-yl)-5-fluorobenzyl)oxy)phenyl)butanoic acid]
10 to 500 nM | N#CC1(c2ccc(-c3ccc(F)cc3COc3ccc(CCC(=O)O)nc3)cc2)CC1 [Example 18, 3-(5-((4′-(1-Cyanocyclopropyl)-4-fluoro-[1,1′-biphenyl]-2-yl)methoxy)pyridin-2-yl)propanoic acid]
10 to 500 nM | O=C(O)CCCc1ccc(OCc2cc(F)ccc2-c2ncc(C3CC3)s2)cc1 [Example 45, 4-(4-((2-(5-Cyclopropylthiazol-2-yl)-5-fluorobenzyl)oxy)phenyl)butanoic acid]
10 to 500 nM | O=C(O)CCCc1ccc(OCc2cc(F)ccc2-c2ccc(C3CC3)s2)cc1 [Example 11, 4-(4-((2-(5-Cyclopropylthiophen-2-yl)-5-fluorobenzyl)oxy)phenyl)butanoic acid]
